Each structure is given as a SMILES string. Like-named read-outs stand apart in the source and are kept apart here. Where only a bound is given, the exact number is not on record here.

In one series the test system is MDA-MB-436 cells. The experiment in a line: MDA-MB-436 cell activity test (CellTiter-Glo, 7 days). Particulars: Homo sapiens; for IC50: MDA-MB-436, 168 h, 7 days incubation; for inhibition at 10 µM: MDA-MB-436 cells, read-out: Max inh. % 10 μM. It is filed as cell-based. On the procedure: Breast tumor cells MDA-MB-436 were purchased from ATCC, the culture medium was Leibovitz's L-15+10% FBS, and the cells were cultured in a CO2-free incubator at 37° C. On day 1, the cells in the exponential growth phase were collected, and the cell suspension was adjusted to 4000 cells/135 μL with the culture medium. 135 μL of the cell suspension was added to each well of a 96-well cell culture plate and incubated overnight. On day 2, compounds at different concentrations were added, and the plate was placed in the incubator and incubated for 7 days. After the incubation was completed, according to operation instructions for a CellTiter-Glo kit (Promega, G7573), 75 μL of CTG solution, which was already pre-melted and equilibrated to room temperature, was added to each well, and the mixture was uniformly mixed for 2 min using a microplate shaker. The plate was placed at room temperature for 10 min, and then […] were measured using an Envision2104 plate reader (PerkinElmer). The inhibition rate was calculated using formula (1), where RLUcompound was the readout of the drug treated group, RLUcontrol was the average value of the vehicle control group, and RLUblank was the average value of the cell-free well. The IC50 value was calculated using GraphPad Prism software.

The target of another series is T1, PARP-1 enzyme (Homo sapiens, UniProt P09874).
T1 construct: purchased BPS Bioscience
Nature of the series: PARP-1 enzyme activity test (BPS Bioscience chemiluminescence kit). In kind it is biochemical. How it is done:
PARP-1 chemical […] detection kit was purchased from BPS Bioscience. The histone solution in the kit was diluted 5× with 1×PBS, and 25 μL of the diluted histone solution was added to a microwell plate and incubated overnight at 4° C. After the incubation, the plate was washed three times with PBST (0.05% Tween-20). 100 μL of the blocking solution was added to the microwell plate and incubated at 25° C. for 90 minutes. After the incubation, the plate was washed three times with PBST. 2.5 μL of compounds at different concentrations diluted in test buffer and 12.5 μL of substrate mixed solution (1.25 μL 10× PARP test buffer; 1.25 μL 10× PARP test mixed solution; 2.5 μL Activated DNA, 7.5 μL double-distilled water) were added to the microwell plate. The PARP-1 enzyme was diluted to 2 ng/μL, 10 μL of the diluent was added to the microwell plate, and the reaction system was incubated at 25° C. for 60 minutes.
After the incubation, the plate was washed three times with PBST. Streptavidin-HRP was diluted 50× with a blocking solution, and 25 μL of the diluent was added to the microwell plate and incubated at 25° C. for 30 minutes. After the incubation, the plate was washed three times with PBST. ELISA ECL substrate A and substrate B were mixed at a ratio of 1:1 (v/v), 50 μL of the mixture was added to the microwell plate, and the chemiluminescence value was read.
The inhibition rate was calculated according to formula 1, where RLUsample was the readout of the compound well, RLUmax was the readout of the solvent control well, and RLUmin was the readout of the control well without the PARP-1 enzyme. Curve fitting was performed by four parameters (log (inhibitor) vs. response—Variable slope) using GraphPad Prism software, and the IC50 value was calculated.

The nature of series [1]: Pharmacokinetic test in rats. In kind it is in vivo, SD rats. On the procedure:
• 1.1 Experimental animals: male SD rats, about 220 g, 6-8 weeks old, 6 rats/compound, purchased from Chengdu Ddossy Experimental Animals Co., Ltd. • 1.2 Experimental design: on the day of the test, 6 SD rats were randomly grouped according to their body weight; the animals were fasted with water available for 12 to 14 h one day before the administration, and were fed 4 h after the administration.
Before and after the administration, 0.15 ml of blood was taken from the orbit of the animals under isoflurane anesthesia and placed in an EDTAK2 centrifuge tube. The blood was centrifuged at 5000 rpm and 4° C. for 10 min to collect plasma. The blood collection time points for the intravenous administration group and intragastric administration group were: 0, 5 min, 15 min, 30 min, 1 h, 2 h, 4 h, 6 h, 8 h, and 24 h. Before analysis and detection, all samples were stored at −80° C., and a quantitative analysis of samples was performed using LC-MS/MS.

Series [2] in a line: Pharmacokinetic test in mice. It is filed as in vivo, ICR mice. How it is done:
• 3.1 Experimental animals: male ICR mice, 20-25 g, 18 mice/compound. purchased from Chengdu Ddossy Experimental Animals Co., Ltd. • 3.2 Experimental design: on the day of the test, 18 ICR mice were randomly grouped according to their body weights. the animals were fasted with water available for 12 to 14 h one day before the administration, and were fed 4 h after the administration. [table] Before and after the administration, 0.06 mL of blood was taken from the orbit of the animals under isoflurane anesthesia and placed in an EDTAK2 centrifuge tube. The blood was centrifuged at 5000 rpm and 4° C. for 10 min to collect plasma. The blood collection time points for the intravenous group and intragastric administration group were: 0 min, 5 min, 15 min, 30 min, 1 h, 2 h, 4 h, 6 h, 8 h, and 24 h. Before analysis and detection, all samples were stored at −80° C., and a quantitative analysis of samples was performed using LC-MS/MS.

Setting [3] is: grades, read-out: PARP-1 enzyme activity IC50.
[4] abbreviates: values in text, read-out: IC50 values on PARP-1.
Where [5] appears, read: male, SD, rat, iv, rats, i.v. 2.5 mg/kg, plasma.
Setting [6] is: male, ICR, mouse, iv, mice, i.v. 2.5 mg/kg, plasma.

T1 sequence (P09874 whole entry): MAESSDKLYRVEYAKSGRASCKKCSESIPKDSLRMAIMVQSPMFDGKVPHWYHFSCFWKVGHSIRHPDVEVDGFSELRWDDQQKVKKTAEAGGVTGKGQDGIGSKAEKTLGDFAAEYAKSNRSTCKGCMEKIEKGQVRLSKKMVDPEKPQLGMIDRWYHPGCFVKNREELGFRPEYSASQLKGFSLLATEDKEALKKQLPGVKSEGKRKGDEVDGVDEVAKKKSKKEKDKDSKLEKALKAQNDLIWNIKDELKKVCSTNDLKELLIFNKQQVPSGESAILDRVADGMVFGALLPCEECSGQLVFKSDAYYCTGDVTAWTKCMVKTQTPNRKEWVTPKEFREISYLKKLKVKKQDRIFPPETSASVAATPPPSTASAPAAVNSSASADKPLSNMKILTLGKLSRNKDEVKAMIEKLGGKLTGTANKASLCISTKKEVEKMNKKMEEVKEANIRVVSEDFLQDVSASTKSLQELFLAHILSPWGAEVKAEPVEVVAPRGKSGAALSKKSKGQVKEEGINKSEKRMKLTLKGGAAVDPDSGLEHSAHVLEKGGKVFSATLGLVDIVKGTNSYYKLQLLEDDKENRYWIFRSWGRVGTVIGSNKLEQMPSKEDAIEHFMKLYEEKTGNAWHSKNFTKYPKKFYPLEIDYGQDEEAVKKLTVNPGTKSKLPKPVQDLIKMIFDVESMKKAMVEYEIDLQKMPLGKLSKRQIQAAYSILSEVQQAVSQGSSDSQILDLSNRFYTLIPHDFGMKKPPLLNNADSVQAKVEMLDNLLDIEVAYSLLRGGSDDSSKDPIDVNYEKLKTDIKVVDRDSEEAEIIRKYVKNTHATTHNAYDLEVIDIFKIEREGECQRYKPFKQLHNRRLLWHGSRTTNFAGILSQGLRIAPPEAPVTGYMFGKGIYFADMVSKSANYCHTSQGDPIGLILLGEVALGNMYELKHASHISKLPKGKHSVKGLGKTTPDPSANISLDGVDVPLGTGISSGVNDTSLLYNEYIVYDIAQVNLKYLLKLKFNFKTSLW

Regarding `CNC(=O)c1ccc(N2CCN(Cc3cnc4cc(C5CC5)c(=O)[nH]c4c3)CC2)cn1` [Compound 2, 5-(4-((7-cyclopropyl-6-oxo-5,6-dihydro-1,5-naphthyridin-3-yl)methyl)piperazin-1-yl)-N-methylpicolinamide], the concentration for half-maximal inhibition (IC50) was 5.1 nM with MDA-MB-436 cells, at most 1 nM at PARP-1 enzyme (setting [3]) and 0.9 nM on PARP-1 enzyme (setting [4]). Moreover, in the series on MDA-MB-436 cells, the inhibition at 10 µM was 86.3%. Moreover, the “pharmacokinetic characteristics in rats” value in series [1] (conclusion in words) is listed as “good pharmacokinetic characteristics”. Moreover, the area under the curve AUC(0-t) turned out to be 70.8 µg·h/mL in series [1] (setting [5]) and 206 µg·h/mL in series [1] (male, SD, rat, po, rats, i.g. 10 mg/kg, plasma). The clearance in series [1] (setting [5]) came out at 0.585 mL/min/kg. For the same molecule, the Vd in series [1] (male, SD, rat, iv, rats, i.v. 2.5 mg/kg, plasma, read-out: Vdss) was found to be 0.169 L/kg. This molecule registered a F in series [1] (rats, i.g. 10 mg/kg) of 72.6%.
Regarding `O=C(NC1CC1)c1ccc(C2=CCN(Cc3cnc4cc(C5CC5)c(=O)[nH]c4c3)CC2)cn1` [Compound 3, N-cyclopropyl-1′-((7-cyclopropyl-6-oxo-5,6-dihydro-1,5-naphthyridin-3-yl)methyl)-1′,2′,3′,6′-tetrahydro-[3,4′-bipyridine]-6-carboxamide], the “pharmacokinetic characteristics in mice” value in series [2] (conclusion in words) is reported as “good pharmacokinetic characteristics”. Besides, the area under the curve AUC(0-t) was determined as 108 µg·h/mL in series [2] (setting [6]) and 707 µg·h/mL in series [2] (male, ICR, mouse, po, mice, i.g. 10 mg/kg, plasma). Moreover, the clearance in series [2] (setting [6]) amounted to 0.346 mL/min/kg. The Vd in series [2] (male, ICR, mouse, iv, mice, i.v. 2.5 mg/kg, plasma, read-out: Vdss) stood at 0.207 L/kg. This molecule gave a F in series [2] (mice, i.g. 10 mg/kg) of 164%. For the same molecule, the IC50 with MDA-MB-436 cells was 4.5 nM; at PARP-1 enzyme (setting [3]), at most 1 nM; on PARP-1 enzyme (setting [4]), 0.6 nM. Besides, the inhibition at 10 µM in the series with MDA-MB-436 cells is 82.1%.
For `O=C(NC1CC1)c1ccc(N2CCN(Cc3cnc4cc(C5CC5)c(=O)[nH]c4c3)CC2)cn1` [Compound 5, N-cyclopropyl-5-(4-((7-cyclopropyl-6-oxo-5,6-dihydro-1,5-naphthyridin-3-yl)methyl)piperazin-1-yl)picolinamide], the IC50 is 5.6 nM in the series on MDA-MB-436 cells, at most 1 nM on PARP-1 enzyme (setting [3]) and 0.74 nM on PARP-1 enzyme (setting [4]). Also, in the series on MDA-MB-436 cells, the inhibition at 10 µM was found to be 80.7%.
The like results for `Cn1cc(NC(=O)c2ccc(N3CCN(Cc4cnc5cc(C6CC6)c(=O)[nH]c5c4)CC3)cn2)cn1` [Compound 6, 5-(4-((7-cyclopropyl-6-oxo-5,6-dihydro-1,5-naphthyridin-3-yl)methyl)piperazin-1-yl)-N-(1-methyl-1H-pyrazol-4-yl)picolinamide] were, in that order, 2.8 nM, at most 1 nM, 0.54 nM and 85.4%.
For the molecule `O=c1[nH]c2cc(CN3CCN(c4cn5cc(C(F)(F)F)nc5cn4)CC3)cnc2cc1C1CC1` [Compound 8, 3-cyclopropyl-7-((4-(2-(trifluoromethyl)imidazo[1,2-a]pyrazin-6-yl)piperazin-1-yl)methyl)-1,5-naphthyridin-2(1H)-one], in the series with MDA-MB-436 cells, it took 1.1 nM to reach half-maximal inhibition (IC50) and the inhibition at 10 µM is 97.4%. For the same molecule, the half-inhibitory concentration (IC50) on PARP-1 enzyme (setting [4]) stood at 1.2 nM.

Source of the values: US20240391937A1, “BICYCLIC DERIVATIVE PARP INHIBITOR AND USE THEREOF” (XIZANG HAISCO PHARMACEUTICAL CO., LTD., priority 2021, published 2024).
